# US20240263147A1, “CARDIAC ORGANOID AND ANTI-ELECTRO-MITOCHONDRIAL DESYNCHRONIZATION THERAPY” (YISSUM RESEARCH DEVELOPMENT COMPANY OF THE HEBREW …, priority 2021, published 2024)
# “Also recorded” adds a separate entry of the source.
# Experiments:
# [1] = test system: vascularized cardiac organoids; assay: Integrated metabolic-electro-mechanical sensor chip: simultaneous contraction, field potential and interstitial oxygen; assay type: cell-based, human; conditions: for reversal of mitoxantrone-induced arrhythmic behavior: 100 μM metformin concurrent with 10 μM mitoxantrone
# porcine cardiac tissue = test system: porcine cardiac tissue
# Source text: The tissue was procured post-mortem from a 70 kg domestic female pig that underwent a laparoscopic liver operation (Ethical approval number MD-21-16533-3) and was euthanized using a lethal dose of potassium chloride. […] The lung was retracted, and the pericardium was incised.
# The anterior wall of the left ventricle was incised from base to apex and several slices measuring 2-3 mm in length and 1-2 mm thick were obtained using a #10 scalpel blade. Cardiac tissues were further cut into 500±200 μm thick slices and washed thoroughly with 37° C. pre-warmed ex-vivo medium composed of M199 medium, supplemented with 1×insulin-transferrin-selenium (ITS), 10% fetal bovine serum (FBS), and 5 ng/mL vascular endothelial growth factor (VEGF), and 10 mM of 2-[4-(2-hydroxyethyl)piperazin-1-yl]ethanesulfonic acid (HEPES).
# The cardiac explants were then embedded with oxygen sensors, placed on the MEAs chip, and transferred to a 37° C. temperature-controlled incubation chamber that contains M199 medium supplemented with 1× ITS, 10% FBS, 5 ng/mL VEGF, and 10 mM HEPES to support long term function, as previously described. The explant was continuously point-stimulated at 2 Hz cycle length. Contraction, field potential, and oxygen were assessed using the integrated metabolic-electro-mechanical sensor chip. […]
# [2] = test system: hiPSC-derived cardiomyocytes; assay: Live imaging of mitochondrial calcium (Rhod-2AM) and visual contraction analysis in 2D culture; assay type: cell-based, human; conditions: n=4
# [3] = test system: hiPSC-derived vascularized cardiac organoids; assay: Beating of vascularized cardiac organoids under pharmaceutical stimulation; assay type: cell-based, human
# Protocol: hiPS-derived cardiomyocytes and microvascular cardiac endothelial cells (VEC Technologies, USA) were counted and mixed in a 2:1 ratio in growth factor reduced Matrigel (BD Biosciences, San Jose, CA) at a cell density of 6.8×10^4 cells per μl. A volume of 1.1 μl of the gel-imbedded mixture (7.48×10^4 cells) was injected into each microwell and left to form spontaneously in RPMI-1640 supplemented with B27 minus insulin and 5 ng/ml vascular endothelial growth factor (VEGF-A, Peprotech) until their spontaneous beating was regained after 6-10 days.
# (§1) Fast phase-contrast imaging (17 frames per second) was performed at suitable magnification using an LSM-700 Zeiss microscope. The time-lapse micrograph was analyzed using a custom MATLAB® code. Briefly, multiple regions of interest (ROIs) were selected on the cardiac tissue borders, producing a distinct area with changes representative of the cardiac contraction. Dynamic changes in the ROI intensity were measured over time and converted into beating rates using Fast Fourier Transformation (FFT). Contractility was calculated based on the frequency amplitude magnitude.
# [4] = test system: vascularized cardiac organoids; assay: Metabolic flux balance analysis and ATP production in cardiac organoids; assay type: cell-based, human; conditions: 10 μM KB-R7943, within 20 minutes of exposure
# Protocol: Amperometric 4-analytes sensors (B.LV5) were purchased from Innovative Sensor Technology (IST, Switzerland). Measurements were carried out and calibrated to sensitivity decrease by an on-chip potentiostat (IST, Switzerland). Oxygen, glucose, lactate, and glutamine fluxes were measured by calculating the change in metabolite concentration over time. Glutamine measurement allowed us to calculate lipid metabolism fluxes. Oxidative phosphorylation flux was calculated by dividing the oxygen uptake rate by six. The inventors estimated 32 ATP molecules generated by the complete oxidation of glucose. Glycolysis flux was calculated by dividing the lactate production rate by two, with the maximal rate defined by glucose uptake rate minus the oxidative phosphorylation flux. ATP production in glycolysis was estimated to be two molecules per molecule of glucose. Glutaminolysis was calculated directly by glutamine uptake. ATP production in glutaminolysis was estimated to be three molecules per molecule of lactate generated.
# [5] = test system: vascularized cardiac organoids; assay: Integrated metabolic-electro-mechanical sensor chip: simultaneous contraction, field potential and interstitial oxygen; assay type: cell-based, human; conditions: 10 μM KB-R7943
# Protocol: The MEA design and printed connections enabled access to 45 different electrodes inside the platform intermittently via a compatible sensor circuit (FIGS. 9A-9B). Spontaneous cardiac field potentials (FPs) were recorded from cardiac organoids using an integrated signal conditioning circuit (AD8232®), with a 2-pole adjustable high-pass filter, 3-pole adjustable low-pass filter, adjustable gain, and medical instrumentation amplifiers to extract, amplify, and filter the extracellular field potential of the organoids remotely within the confined well. […] Spontaneous cardiac field potentials were measured at 100 Hz sampling rate in each microwell. Field potential rhythm frequency was calculated in real-time using a custom-made MATLAB® software imposing Fourier Transformation (FFT) on the evolving kinetic data (FIGS. 9C-9D).
# Real-time oxygen measurement was performed based on previously described elements. Briefly, phosphorescent ruthenium microprobes (CPOx-50-RuP) show a decrease in phosphorescence decay time as a function of oxygen concentration, allowing to measure the oxygen content. Controlled sinusoidal modulated 532-nm LED signal excites the embedded oxygen sensors and emits a sinusoidal amplitude-modulated light at 605 nm that is shifted in phase due to oxygen quenching. A phase shift is measured between the emission hardware-filtered first detector (PMT), and a second excitation detector (cPMT). […] Measurements were carried out at a 10 Hz sampling rate. Contraction rate and oxygen rhythm frequency were calculated in real-time using a custom-made MATLAB® software imposing Fourier Transformation (FFT) on the evolving kinetic data. Using custom MATLAB code, we calculated the cardiac organoid contraction rates directly from our oxygen reader based on the emission intensity measured in peak-to-peak voltage from the oxygen bead and its displacement using the second PMT system. Cardiac displacement was measured by the embedded oxygen beads inside the cardiac organoids during a contraction. When the beads move at different distances from the focal point, changes in peak-to-peak voltage occurred leading to the detection of the contraction behavior.
# For simultaneous real-time oxygen, contraction rate, and field potential measurements, cardiac organoids were cultured in RPMI supplemented with B27 minus insulin, 5 ng/ml VEGF and 0.1% DMSO (control) or 10 μM KB-R7943 mesylate. Real-time oxygen, contraction rate, and field potential were measured after 0, 15, and 25 minutes of exposure to DMSO (control) or 10 μM KB-R7943 mesylate.
# [6] = test system: hiPSC-derived cardiomyocytes; assay: Live imaging of mitochondrial calcium (Rhod-2AM) and visual contraction analysis in 2D culture; assay type: cell-based, human; conditions: for decrease of magnitude of [Ca2+]m oscillations / reduction of contraction magnitude: n=4
# Protocol: as §1
# For mitochondrial calcium live imaging, different hiPSC-derived cardiomyocytes were cultured in RPMI supplemented with B27 minus insulin, and 0.1% DMSO (control) or […] KB-R7943 mesylate (Tocris Bioscieice, USA), Mean mitochondrial calcium was measured using live imaging of Rhod-2AM dye after 0, 30, and 90 seconds of exposure to DMSO (control) or 10 μM MCU inhibitor KB-R7943 mesylate
# Mitochondrial calcium uptake within human iPSC-derived cardiomyocytes was measured using Rhod-2AM dye according to the manufacturer's instructions (Abcam, USA). Cells were loaded with […] Rhod-2AM in RPMI supplemented with B27-I for 30 min at 37° C., washed with PBS, and incubated with RPMI supplemented with […] KB-R7943 or 0.1% DMSO, and B27-I. Measurements were taken continuously using an incubated LSM-700 Zeiss microscope at 5% CO2 and 37° C. Rhod-2AM measurement was conducted by excitation at 552 nm at a 10 Hz sampling rate. Mitochondrial calcium uptake was calculated by the change of the mean emission intensity at 581 nm. The time-lapse micrograph was analyzed using multiple regions of interest (ROIs) and was selected based on Mitotracker staining, producing a distinct area with changes representative to mitochondrial networks. Changes in fluorescent intensity were used to determine oscillation rate and amplitude.
smiles,measurement,setting,value
O=C1c2c(O)ccc(O)c2C(=O)c2c(NCCNCCO)ccc(NCCNCCO)c21 [mitoxantrone],"effect on mechanical contraction, electrical depolarization and oxygen concentration",[1]; mitoxantrone exposure (10 μM),markedly decreased
same,contraction rate,"[1]; mitoxantrone exposure (10 μM), from 53 BPM",79 BPM
same,beating frequency (cardiac rhythm),"porcine cardiac tissue; female, pig, 10 μM",2 Hz
same,decrease in mitochondrial calcium,[2]; 10 μM mitoxantrone alone,79%
CNC[C@H](O)c1ccc(O)c(O)c1 [epinephrine],contraction (beating) rate,[3],88±7 bpm
same,effect on contractility and contraction rate,[1],increases the contractility and contraction rate
same,effect on mean interstitial oxygen concentration,[1],decreasing the mean interstitial oxygen concentration
same,increase of contraction,[1],33%
same,organoid contraction frequency,[1],1.95 Hz
N=C(N)SCCc1ccc(OCc2ccc([N+](=O)[O-])cc2)cc1 [KB-R7943],effect on ATP generation (production),[4],decrease in ATP production; also recorded: decrease in ATP generation
same,effect on coupling of mitochondrial and electro-mechanical activity,[5],"caused uncoupling between mitochondrial and electro-mechanical activity, resulting in arrhythmic cardiac behavior"
same,effect on magnitude of organoid contraction and depolarization,[5],comparable and parallel decrease
same,effect on oxygen uptake of the cardiac organoid,[5],progressive decrease in the oxygen uptake
same,effect on magnitude of oxygen oscillations,[5]; n=9,significantly and progressively decreased
same,effect on [Ca2+]m concentration,[6]; 10 μM KB-R7943,no significant difference
same,decrease of magnitude of [Ca2+]m oscillations,"[6]; 10 μM KB-R7943, 30 seconds",60%
same,reduction of contraction magnitude,"[6]; 10 μM KB-R7943, 30 seconds",45%
same,decrease of magnitude of [Ca2+]m oscillations,"[6]; 10 μM KB-R7943, 90 seconds",78%
same,reduction of contraction magnitude,"[6]; 10 μM KB-R7943, 90 seconds",70%
same,effect on cardiomyocyte contractility and [Ca2+]m oscillation amplitude,"[6]; 10 μM KB-R7943, acute","dramatically decreases cardiomyocyte contractility, and [Ca^2+]m oscillation amplitude; also recorded: decreases the magnitude of cardiomyocyte contraction"
same,effect on cardiomyocyte contraction frequency (rate),"[6]; 10 μM KB-R7943, short term exposure",without affecting contraction rate; also recorded: did not significantly affect
same,"increase of contraction frequency, oxygen oscillation rate and field potential oscillation frequency (all three rates)","[1]; 10 μM KB-R7943, within 35 minutes of exposure, n=9",2.5 fold
CCCCc1oc2ccccc2c1C(=O)c1cc(I)c(OCCN(CC)CC)c(I)c1 [amiodarone],decrease of contraction / contraction amplitude,"[3]; 10 μM amiodarone, n=6",28%
same,contraction rate,"[3]; 10 μM amiodarone, spontaneous beating 66±5 bpm, n=6",52±4 bpm
CN(C)C(=N)N=C(N)N [metformin],reversal of mitoxantrone-induced arrhythmic behavior,[1],"reverts the effect, displaying regular heart contraction and field potential; also recorded: reversed this effect"
same,reversal of mitoxantrone-induced arrhythmic behavior,[1]; listed as Metformin,rescues the arrhythmic cardiac behavior
same,beating rate,"[1]; metformin (100 μM) combined with mitoxantrone (10 μM), from 82 BPM",61 BPM
same,beating frequency,porcine cardiac tissue; 100 μM metformin concurrent with 10 μM mitoxantrone,1.4 Hz
same,increase in mean mitochondrial calcium content,[2]; 100 μM metformin added to 10 μM mitoxantrone treatment,3.4 fold
